In ChEMBL document CHEMBL2177010, “Discovery and preclinical pharmacology of a selective ATP-competitive Akt inhibitor (GDC-0068) for the treatment of human tumors” (J Med Chem, 2012):
Calls of active or inactive are those of the source. The calls are words filed in the database; no cut-off is given here.

Legend:
[1] = target: T1, RAC-alpha serine/threonine-protein kinase (Homo sapiens, UniProt P31749)
Description: Inhibition of Akt1 in human LNCAP cells assessed as phosphorylation of PRAS40 at Thr246 after 1.5 hrs

[2] = Competitive inhibition of PKA expressed in Escherichia coli assessed as fluorescence labeled peptide substrate phosphorylation after 60 mins in presence of ATP
[3] = target: T1, RAC-alpha serine/threonine-protein kinase; remark: listed apart in the source
Description: Competitive inhibition of wild-type full-length amino-terminal polyhistidine-tagged human Akt1 expressed in recombinant baculovirus system using fluorescence labeled substrate after 60 mins by fluorescence polarization assay in presence of ATP

[4] = target: RAC-gamma serine/threonine-protein kinase (Homo sapiens, UniProt Q9Y243)
RAC-gamma serine/threonine-protein kinase, sequence (Q9Y243 whole entry): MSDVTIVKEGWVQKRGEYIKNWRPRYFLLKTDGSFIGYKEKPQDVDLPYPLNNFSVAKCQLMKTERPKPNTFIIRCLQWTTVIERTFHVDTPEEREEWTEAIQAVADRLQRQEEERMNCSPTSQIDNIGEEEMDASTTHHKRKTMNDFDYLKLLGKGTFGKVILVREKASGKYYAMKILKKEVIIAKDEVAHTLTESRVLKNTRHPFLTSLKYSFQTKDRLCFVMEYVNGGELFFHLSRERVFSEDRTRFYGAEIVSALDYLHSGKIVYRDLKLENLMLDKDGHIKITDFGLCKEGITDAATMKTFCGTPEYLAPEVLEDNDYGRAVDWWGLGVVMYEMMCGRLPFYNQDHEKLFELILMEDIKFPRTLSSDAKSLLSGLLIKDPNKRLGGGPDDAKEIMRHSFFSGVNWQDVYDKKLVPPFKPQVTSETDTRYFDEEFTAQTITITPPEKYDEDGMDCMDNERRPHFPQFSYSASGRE
Description: Competitive inhibition of wild-type full-length amino-terminal polyhistidine-tagged human Akt3 expressed in recombinant baculovirus system using fluorescence labeled Crosstide as substrate after 60 mins by fluorescence polarization assay in presence of ATP

LNCaP = assay: Cytotoxicity against human LNCAP cells assessed as reduction of resazurin to resorufin after 72 hrs
[5] = Plasma concentration in nu/nu mouse xenografted with human PC3 cells at 100 mg/kg, po at 8 hrs by LC/MS/MS analysis; type: ADME, organism-based, PC-3; set-up: dose 100 mg/kg, route oral
[6] = target: T1, RAC-alpha serine/threonine-protein kinase; conditions: BT474M1
Description: Inhibition of Akt1-mediated PRAS40 phosphorylation in human BT474M1 cells

Mus musculus [7] = assay: Toxicity in nu/nu mouse xenografted with human PC3 cells assessed as loss in body weight at 1 to 100 mg/kg, po qd relative to vehicle-treated control; type: organism-based, PC-3; set-up: dose 1-100 mg/kg, route oral; conditions: in vivo
[8] = Plasma concentration in nu/nu mouse xenografted with human PC3 cells at 12.5 mg/kg, po within 1 hr by LC/MS/MS analysis; type: ADME, organism-based, PC-3; set-up: dose 12.5 mg/kg, route oral
MCF7 = assay: Cytotoxicity against human MCF7 cells overexpressing Her2 assessed as decrease in cell viability after 96 hrs by CellTitre-Glo assay; conditions: MCF7, 96 h
[9] = Plasma concentration in nu/nu mouse xenografted with human PC3 cells at 50 mg/kg, po at 1 hr by LC/MS/MS analysis; type: ADME, organism-based, PC-3; set-up: dose 50 mg/kg, route oral
PC-3 [10] = assay: Antitumor activity against human PC3 xenografted in po dosed nu/nu mouse assessed as inhibition of tumor growth administered once daily measured after 11 days; type: functional; conditions: PC-3, po, 264 h, read-out: MED
PC-3 [11] = assay: Antitumor activity against human PC3 xenografted in nu/nu mouse assessed as inhibition of tumor growth at 100 mg/kg, po qd after 11 days; type: functional; conditions: PC-3, 264 h, read-out: TGI
PC-3 [12] = assay: Antitumor activity against human PC3 xenografted in nu/nu mouse assessed as inhibition of tumor growth at 50 mg/kg, po bid after 11 days; type: functional; conditions: PC-3, 264 h, read-out: TGI
[13] = Plasma concentration in nu/nu mouse xenografted with human PC3 cells at 50 mg/kg, po within 1 hr by LC/MS/MS analysis; type: ADME, organism-based, PC-3; set-up: dose 50 mg/kg, route oral
BT-474 = assay: Cytotoxicity against human BT474M1 cells assessed as decrease in cell viability after 96 hrs by CellTitre-Glo assay; conditions: BT474M1, 96 h
PC-3 [14] = assay: Cytotoxicity against human PC3 cells assessed as decrease in cell viability after 96 hrs by CellTitre-Glo assay; conditions: PC-3, 96 h
[15] = Solubility of the compound at pH 1.2 to 7.4; type: physicochemical; conditions: buffer
Mus musculus [16] = assay: Inhibition of Akt in nu/nu mouse xenografted with human PC3 cells assessed as decrease in tumor p-PRAS40 level at 100 mg/kg, po at 8 hrs by ELISA relative to total PRAS40; type: functional; conditions: PC-3, 8 h
Mus musculus [17] = assay: Toxicity in nu/nu mouse xenografted with human PC3 cells assessed as loss in body weight at 150 mg/kg, po qd after 8 days relative to vehicle-treated control; type: organism-based, PC-3; set-up: dose 150 mg/kg, route oral; conditions: in vivo, 192 h
[18] = Plasma concentration in nu/nu mouse xenografted with human PC3 cells at 50 mg/kg, po at 9 hrs by LC/MS/MS analysis; type: ADME, organism-based, PC-3; set-up: dose 50 mg/kg, route oral
PC-3 [19] = assay: Antitumor activity against human PC3 xenografted in nu/nu mouse assessed as inhibition of tumor growth at 25 mg/kg, po qd after 11 days; type: functional; conditions: PC-3, 264 h, read-out: TGI
Mus musculus [20] = assay: Inhibition of Akt in nu/nu mouse xenografted with human PC3 cells assessed as decrease in tumor p-PRAS40 level at 100 mg/kg, po within 3 hrs by ELISA relative to total PRAS40; type: functional; conditions: PC-3, 3 h
[21] = Permeability across apical to basolateral side in human Caco2 cells; type: ADME, cell-based; conditions: Caco-2, read-out: permeability
[22] = Permeability across basolateral to apical side in human Caco2 cells; type: ADME, cell-based; conditions: Caco-2, read-out: permeability

T1 sequence (P31749 whole entry): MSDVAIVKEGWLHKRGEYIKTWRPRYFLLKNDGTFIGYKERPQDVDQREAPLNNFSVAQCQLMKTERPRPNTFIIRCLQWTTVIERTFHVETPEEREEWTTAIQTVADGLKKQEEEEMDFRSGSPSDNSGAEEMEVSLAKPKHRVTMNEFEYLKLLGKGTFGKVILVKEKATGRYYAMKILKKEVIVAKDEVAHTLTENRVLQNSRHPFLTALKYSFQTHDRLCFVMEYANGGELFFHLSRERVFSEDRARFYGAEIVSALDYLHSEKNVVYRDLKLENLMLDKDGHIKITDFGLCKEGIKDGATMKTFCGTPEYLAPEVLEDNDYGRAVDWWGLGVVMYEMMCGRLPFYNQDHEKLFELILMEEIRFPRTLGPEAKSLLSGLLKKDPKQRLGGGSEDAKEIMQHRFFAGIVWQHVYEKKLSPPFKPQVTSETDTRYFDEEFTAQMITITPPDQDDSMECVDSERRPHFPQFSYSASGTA

| SMILES | IC50 [1] [nM] | IC50 [2] [nM] | IC50 [3] [nM] | IC50 [4] [nM] | also measured |
| --- | --- | --- | --- | --- | --- |
| CC(C)NC[C@@H](C(=O)N1CCN(c2ncnc3c2[C@H](C)CC3(F)F)CC1)c1ccc(Cl)cc1 | 8550 | > 10000 | 1170 |  |  |
| CC(C)NC[C@@H](C(=O)N1CCN(c2ncnc3c2[C@H](CF)CC3)CC1)c1ccc(Cl)cc1 | 123 | 35 | 3 | 5 |  |
| C[C@@H]1C[C@@H](O)c2ncnc(N3CCN(C(=O)[C@@H](c4ccc(Cl)cc4)[C@@H]4CCCN4)CC3)c21 | 241 | 271 | 3 | 5 |  |
| C[C@@H]1C[C@@H](O)c2ncnc(N3CCN(C(=O)[C@H](CNC4CCOCC4)c4ccc(Cl)cc4)CC3)c21 |  | 654 |  |  |  |
| C[C@@H]1C[C@@H](O)c2ncnc(N3CCN(C(=O)[C@H](CNCCF)c4ccc(Cl)cc4)CC3)c21 | 1300 | 1320 | 12 | 21 |  |
| CO[C@H]1CC[C@H](NC[C@@H](C(=O)N2CCN(c3ncnc4c3[C@H](C)C[C@H]4O)CC2)c2ccc(Cl)cc2)CC1 | 132 | 662 | 5 | 4 |  |
| CC(C)NC[C@@H](C(=O)N1CCN(c2ncnc3c2[C@H](C)C[C@@H]3O)CC1)c1ccc(Cl)cc1 |  | 1550 |  |  |  |
| C[C@@H]1C[C@@H](O)c2ncnc(N3CCN(C(=O)[C@H](CNC4CCOCC4)c4ccc(Cl)c(F)c4)CC3)c21 | 139 | 556 | 12 | 12 |  |
| CC(C)NC[C@@H](C(=O)N1CCN(c2ncnc3c2[C@H](C)C[C@H]3F)CC1)c1ccc(Cl)cc1 |  | 17 |  | 10 |  |
| C[C@@H]1C[C@@H](O)c2ncnc(N3CCN(C(=O)[C@H](CNC(C)(C)CO)c4ccc(C(F)(F)F)c(F)c4)CC3)c21 |  | 75 |  | 2 |  |
| C[C@@H]1C[C@@H](O)c2ncnc(N3CCN(C(=O)[C@H](CNCC4CC4)c4ccc(C(F)(F)F)c(F)c4)CC3)c21 |  | 103 |  | 2 |  |
| C[C@@H]1C[C@@H](O)c2ncnc(N3CCN(C(=O)[C@H](CN)c4ccc(Cl)cc4)CC3)c21 | 1450 | 700 | 24 | 45 |  |
| C[C@@H]1C[C@@H](O)c2ncnc(N3CCN(C(=O)[C@H](CN)c4ccc(C(F)(F)F)cc4)CC3)c21 | 603 | 418 | 12 | 27 |  |
| CC(C)NC[C@@H](C(=O)N1CCN(c2ncnc3c2[C@H](C)C[C@H]3O)CC1)c1ccc(Cl)cc1 [IPATASERTIB] |  | 3100 |  |  | IC50 (LNCaP): 95 nM; concentration at 8 h [5]: > 2600 nM; inhibition [6]: Active; Activity (Mus musculus [7]): < 10%; concentration at 1 h [8]: ≥ 200 nM; IC50 (MCF7): 1000 nM; concentration at 1 h [9]: 7400 nM; minimal effective dose (PC-3 [10]): 25 mg/kg; inhibition in vivo at 100 mg/kg (PC-3 [11]): 79%; inhibition in vivo at 50 mg/kg (PC-3 [12]): 81%; concentration at 1 h [13]: ≥ 200 nM; IC50 (BT-474): 1000 nM; IC50 (PC-3 [14]): 1000 nM; solubility [15]: > 10000 µg/mL; inhibition in vivo at 100 mg/kg (Mus musculus [16]): 87%; Activity (Mus musculus [17]): >= 20%; concentration at 9 h [18]: 500 nM; inhibition in vivo at 25 mg/kg (PC-3 [19]): 49%; inhibition in vivo at 100 mg/kg (Mus musculus [20]): > 95% |
| CC(C)NC[C@@H](C(=O)N1CCN(c2ncnc3c2[C@H](C)C[C@H]3O)CC1)c1ccc(Cl)c(F)c1 | 234 | 490 | 3 | 7 |  |
| CC(C)N(C)C[C@@H](C(=O)N1CCN(c2ncnc3c2[C@H](C)C[C@H]3O)CC1)c1ccc(Cl)cc1 | 139 | 2140 | 18 |  |  |

| SMILES | IC50 [1] [nM] | IC50 [2] [nM] | IC50 [3] [nM] | IC50 [4] [nM] | also measured |
| --- | --- | --- | --- | --- | --- |
| COCCNC[C@@H](C(=O)N1CCN(c2ncnc3c2[C@H](C)C[C@H]3O)CC1)c1ccc(Cl)cc1 | 384 | 1000 | 8 | 13 |  |
| C[C@@H]1C[C@@H](O)c2ncnc(N3CCN(C(=O)[C@H](CNCC4CCOCC4)c4ccc(Cl)cc4)CC3)c21 | 102 | 436 | 3 | 4 |  |
| CC(C)NC[C@@H](C(=O)N1CCN(c2ncnc3c2C(C)(C)CC3)CC1)c1ccc(Cl)cc1 |  | > 2000 |  | > 2000 |  |
| CC(C)NC[C@@H](C(=O)N1CCN(c2ncnc3c2[C@H](C)CC3)CC1)c1ccc(Cl)cc1 | 287 | 33 | 6 | 5 | Papp A→B [21]: 13.2 ×10⁻⁶ cm/s; Papp B→A [22]: 19.2 ×10⁻⁶ cm/s |
| C=C[C@@H]1CCc2ncnc(N3CCN(C(=O)[C@H](CNC(C)C)c4ccc(Cl)cc4)CC3)c21 | 176 | 10 | 2 | 1 |  |
| C[C@@H]1C[C@@H](O)c2ncnc(N3CCN(C(=O)[C@H](CNC(C)(C)CO)c4ccc(Cl)cc4)CC3)c21 | 75 | 293 | 2 | 3 |  |
| C[C@@H]1C[C@@H](O)c2ncnc(N3CCN(C(=O)[C@H](CNC4CCCCC4)c4ccc(Cl)cc4)CC3)c21 | 367 | 1280 | 9 | 7 |  |
| C[C@@H]1C[C@@H](O)c2ncnc(N3CCN(C(=O)[C@H](CNCC(F)(F)F)c4ccc(Cl)cc4)CC3)c21 |  | > 10000 | 902 | 798 |  |
| C[C@@H]1C[C@@H](O)c2ncnc(N3CCN(C(=O)[C@H](CNC(C)(C)C)c4ccc(C(F)(F)F)c(F)c4)CC3)c21 |  | 153 |  |  |  |
| CC(C)NC[C@@H](C(=O)N1CCN(c2ncnc3c2[C@H](CO)CC3)CC1)c1ccc(Cl)cc1 | 846 | 957 | 81 | 83 |  |
| C[C@@H]1C[C@@H](O)c2ncnc(N3CCN(C(=O)[C@@H](c4ccc(Cl)cc4)[C@@H]4COCCN4)CC3)c21 | 855 | 1360 | 12 | 26 |  |
| C[C@@H]1C[C@@H](O)c2ncnc(N3CCN(C(=O)[C@@H](c4ccc(Cl)cc4)[C@@H]4CCCCN4)CC3)c21 | 530 | 1600 | 9 | 12 |  |
| C[C@@H]1C[C@@H](O)c2ncnc(N3CCN(C(=O)[C@H](CNCC4CC4)c4ccc(Cl)cc4)CC3)c21 |  | 777 |  |  |  |
| CC(C)NC[C@@H](C(=O)N1CCN(c2ncnc3c2[C@H](C)C[C@@H]3F)CC1)c1ccc(Cl)cc1 |  | 541 |  | 23 |  |
| C[C@@H]1C[C@@H](O)c2ncnc(N3CCN(C(=O)[C@H](CN4CCC(F)CC4)c4ccc(Cl)cc4)CC3)c21 | 196 | 1200 | 6 |  |  |
